For this assay, the target named is rat PDE10 enzyme (Rattus norvegicus (Rat), UniProt Q9QYJ6). As to the kind of experiment: PDE10 scintillation proximity assay (SPA), inhibition of rat PDE10 enzyme activity. It counts as biochemical. To be noted: geometric mean of 2-4 determinations unless otherwise indicated (b: ≧5 determinations; c: single determination). As to the method: PDE10 activity was measured using a scintillation assay (SPA-based method) similar to that previously described by Seeger, T. F. et al., Brain Research 985 (2003) 113-126. The compounds' relative activity as PDE10 inhibitors was investigated by assaying a fixed amount of enzyme in the presence of the test compound and low substrate concentration (cAMP) such that an IC50 could be determined. […] The assay is performed in a 384-well format with 50 μL assay buffer (50 mM TRIS pH 7.5; 1.3 mM MgCl2; 0.01% Brij) containing enough PDE10 to convert ˜20% of 20 nM ^3H-cAMP, and a range of inhibitors. Reactions are incubated for 30 minutes at 25° C. The addition of 20 μL of 8 mg/ml yttrium silicate SPA beads (PerkinElmer) stops the reaction. The plates are sealed (TopSeal, PerkinElmer) and the beads are allowed to settle for 8 hrs, after which they are read on the Trilux Microbeta overnight. ^1Rat enzyme preparation:^2Human enzyme preparation:
The recombinant Bacmid was isolated and used to transfect sf9 insect cells to generate a viral stock. To generate cell paste for purification, sf21 cells were infected with the virus stock and cells were harvested 72 hours after infection as described in Seeger, T. F. et al., Brain Research 985 (2003) 113-126. Insect cell paste was lysed and after centrifugation, the supernatant was chromatographed on Ni-NTA agarose (Qiagen) followed by Mono Q (GE Healthcare Life Sciences) as described in Seeger, T. F. et al., Brain Research 985 (2003) 113-126.
rat PDE10 enzyme, sequence (Q9QYJ6 24-794): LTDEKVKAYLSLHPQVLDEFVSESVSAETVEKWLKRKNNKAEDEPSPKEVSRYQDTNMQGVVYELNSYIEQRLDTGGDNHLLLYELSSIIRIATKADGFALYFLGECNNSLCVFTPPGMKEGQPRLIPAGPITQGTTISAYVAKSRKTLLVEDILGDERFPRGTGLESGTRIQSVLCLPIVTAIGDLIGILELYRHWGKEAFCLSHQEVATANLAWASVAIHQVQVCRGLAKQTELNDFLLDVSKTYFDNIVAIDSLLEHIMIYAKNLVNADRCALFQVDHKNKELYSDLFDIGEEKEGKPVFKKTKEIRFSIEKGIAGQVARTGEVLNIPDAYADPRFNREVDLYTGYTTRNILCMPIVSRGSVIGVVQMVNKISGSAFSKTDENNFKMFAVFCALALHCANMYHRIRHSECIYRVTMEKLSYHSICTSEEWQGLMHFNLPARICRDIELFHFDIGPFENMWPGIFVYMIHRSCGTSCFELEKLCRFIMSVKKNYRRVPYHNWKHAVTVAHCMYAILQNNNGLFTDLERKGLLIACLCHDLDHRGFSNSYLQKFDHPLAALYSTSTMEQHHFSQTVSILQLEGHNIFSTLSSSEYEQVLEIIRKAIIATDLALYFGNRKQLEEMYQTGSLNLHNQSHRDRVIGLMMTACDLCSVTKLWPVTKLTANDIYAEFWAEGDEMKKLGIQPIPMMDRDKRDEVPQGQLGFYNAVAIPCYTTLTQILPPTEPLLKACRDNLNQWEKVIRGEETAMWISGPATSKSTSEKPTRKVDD
The IC50 is the midpoint of a concentration-inhibition curve. As to `[2H]C([2H])([2H])n1c(C2CC2)nc2c(c1=O)CN(c1ncnn3c(C)nc([C@@H]4CCOC4)c13)CC2` [Example 144], inhibition was half-maximal at 0.0837 nM (IC50).

For the molecule `Cc1cccc2c1CN(c1ncnn3c(C)nc([C@@H]4CCOC4)c13)CC2` [Example 155, 8-methyl-2-{7-methyl-5-[(3S)-tetrahydrofuran-3-yl]imidazo[5,1-f][1,2,4]triazin-4-yl}-1,2,3,4-tetrahydroisoquinoline], the IC50 worked out at 0.171 nM.

`Cc1nc2c(c(=O)n1C)CN(c1ncnn3c(C)nc(-c4ccccc4F)c13)CC2` [Example 124, 6-[5-(2-fluorophenyl)-7-methylimidazo[5,1-f][1,2,4]triazin-4-yl]-2,3-dimethyl-5,6,7,8-tetrahydropyrido[4,3-d]pyrimidin-4(3H)-one] showed an IC50 of 2.71 nM.

As to `CCc1onc2c1CN(c1ncnn3c(C)nc([C@@H]4CCOC4)c13)CC2` [Example 31], the IC50 is 3.73 nM.

The molecule `Cc1c2c(nn1C)CCN(c1ncnn3c(C)nc([C@@H]4CCOC4)c13)C2` [Example 101, 4-(2,3-dimethyl-2,4,6,7-tetrahydro-5H-pyrazolo[4,3-c]pyridin-5-yl)-7-methyl-5-[(3S)-tetrahydrofuran-3-yl]imidazo[5,1-f][1,2,4]triazine] yielded a half-maximal inhibitory concentration (IC50) of 0.283 nM.

`Cc1nc(C2CCOCC2)c2c(N3CCc4[nH]nc(C(C)C)c4C3)ncnn12` [Example 108, 7-methyl-4-(3-(propan-2-yl)-1,4,6,7-tetrahydro-5H-pyrazolo[4,3-c]pyridin-5-yl]-5-(tetrahydro-2H-pyran-4-yl)imidazo[5,1-f][1,2,4]triazine]: half-maximal inhibition (IC50) was put at 0.902 nM.

As to `Cc1nc(-c2ccc(F)cc2Cl)c2c(N3CCc4cnn(C)c4C3)ncnn12` [Example 122, 5-(2-chloro-4-fluorophenyl)-7-methyl-4-(1-methyl-1,4,5,7-tetrahydro-6H-pyrazolo[3,4-c]pyridin-6-yl)imidazo[5,1-f][1,2,4]triazine], the IC50 turned out to be 2.65 nM.

Molecule `Cc1nc(C2CCCO2)c2c(N3CCc4c(c(C(C)C)nn4C)C3)ncnn12` (stereo not drawn) [Example 45, 4-(3-isopropyl-1-methyl-1,4,6,7-tetrahydro-5H-pyrazolo[4,3-c]pyridin-5-yl)-7-methyl-5-(tetrahydrofuran-2-yl)imidazo[5,1-f][1,2,4]triazine] returned an IC50 of 3.84 nM.

Molecule `COc1ccc2c(c1)CCN(c1ncnn3c(C)nc([C@H]4CCOC4)c13)C2` [Example 87, 6-methoxy-2-{7-methyl-5-[(3R)-tetrahydrofuran-3-yl]imidazo[5,1-f][1,2,4]triazin-4-yl}-1,2,3,4-tetrahydroisoquinoline] came in with a 50% inhibitory concentration (IC50) of 1.26 nM.

`Cc1nc([C@H]2CCCO2)c2c(N3CCc4nc(C5CC5)ncc4C3)ncnn12` [Example 79]: the IC50 came out at 11.2 nM.

In turn, `Cc1nc([C@H]2CCOC2)c2c(N3CCc4cc(Cl)c(Cl)cc4C3)ncnn12` [Example 51, 6,7-dichloro-2-{7-methyl-5-[(3R)-tetrahydrofuran-3-yl]imidazo[5,1-f][1,2,4]triazin-4-yl}-1,2,3,4-tetrahydroisoquinoline] showed a half-inhibitory concentration (IC50) of 13.5 nM.

As to `CCc1nn(C)c2c1CN(c1ncnn3c(C)nc(CC(C)C)c13)CC2` [Example 48, 4-(3-ethyl-1-methyl-1,4,6,7-tetrahydro-5H-pyrazolo[4,3-c]pyridin-5-yl)-5-isobutyl-7-methylimidazo[5,1-f][1,2,4]triazine], the IC50 is under 1 nM.

`Cc1nc([C@H]2CCCO2)c2c(N3CCc4noc(C5CC5)c4C3)ncnn12` [Example 78, 4-(3-cyclopropyl-6,7-dihydro[1,2]oxazolo[4,3-c]pyridin-5(4H)-yl)-7-methyl-5-[(2R)-tetrahydrofuran-2-yl]imidazo[5,1-f][1,2,4]triazine]: the concentration for half-maximal inhibition (IC50) was determined as 3.89 nM.

Turning to `Cc1nn(C)c2c1CN(c1ncnn3c(C)nc([C@H]4CCOC4)c13)CC2` [Example 84, 4-(1,3-dimethyl-1,4,6,7-tetrahydro-5H-pyrazolo[4,3-c]pyridin-5-yl)-7-methyl-5-[(3R)-tetrahydrofuran-3-yl]imidazo[5,1-f][1,2,4]triazine], inhibition was half-maximal at 8.1 nM (IC50).

Molecule `CCc1nn(C)c2c1CN(c1ncnn3c(C)nc(-c4ccc(F)cc4Cl)c13)CC2` [Example 119, 5-(2-chloro-4-fluorophenyl)-4-(3-ethyl-1-methyl-1,4,6,7-tetrahydro-5H-pyrazolo[4,3-c]pyridin-5-yl)-7-methylimidazo[5,1-f][1,2,4]triazine] gave an IC50 of 0.519 nM.

Molecule `Cc1nc([C@H]2CCOC2)c2c(N3CCc4nc(C5CC5)ncc4C3)ncnn12` [Example 56, 2-cyclopropyl-6-{7-methyl-5-[(3R)-tetrahydrofuran-3-yl]imidazo[5,1-f][1,2,4]triazin-4-yl}-5,6,7,8-tetrahydropyrido[4,3-d]pyrimidine] yielded a half-inhibitory concentration (IC50) of 5.34 nM.

As for `COc1cc2c(cc1OC)CN(c1ncnn3c(C)nc([C@@H]4CCOC4)c13)CC2` [Example 15, 6,7-dimethoxy-2-{7-methyl-5-[(3S)-tetrahydrofuran-3-yl]imidazo[5,1-f][1,2,4]triazin-4-yl}-1,2,3,4-tetrahydroisoquinoline], the half-inhibitory concentration (IC50) turned out to be 0.716 nM.

Molecule `Cc1nc([C@H]2CCOC2)c2c(N3CCc4ncncc4C3)ncnn12` [Example 63, 6-{7-methyl-5-[(3R)-tetrahydrofuran-3-yl]imidazo[5,1-f][1,2,4]triazin-4-yl}-5,6,7,8-tetrahydropyrido[4,3-d]pyrimidine] displayed an IC50 of 133 nM.

With `CCOc1nc(C2CC2)nc2c1CN(c1ncnn3c(C)nc(-c4ccccc4F)c13)CC2` [Example 147, 2-cyclopropyl-4-ethoxy-6-[5-(2-fluorophenyl)-7-methylimidazo[5,1-f][1,2,4]triazin-4-yl]-5,6,7,8-tetrahydropyrido[4,3-d]pyrimidine], half-maximal inhibition (IC50) was put at 9.98 nM.

`Cc1nc(C2CC2)nc2c1CN(c1ncnn3c(C)nc([C@@H]4CCOC4)c13)CC2` [Example 41, 2-cyclopropyl-4-methyl-6-{7-methyl-5-[(3S)-tetrahydrofuran-3-yl]imidazo[5,1-f][1,2,4]triazin-4-yl}-5,6,7,8-tetrahydropyrido[4,3-d]pyrimidine]: the concentration for half-maximal inhibition (IC50) was under 0.175 nM.

In the case of `COc1ccc2c(c1OC)CN(c1ncnn3c(C)nc(C4CCOCC4)c13)CC2` [Example 60, 7,8-dimethoxy-2-[7-methyl-5-(tetrahydro-2H-pyran-4-yl)imidazo[5,1-f][1,2,4]triazin-4-yl]-1,2,3,4-tetrahydroisoquinoline], the IC50 is 1.35 nM.

Molecule `Cc1nc(-c2ccccc2F)c2c(N3CCc4c(c(C(C)C)nn4C)C3)ncnn12` [Example 43, 5-(2-fluorophenyl)-4-(3-isopropyl-1-methyl-1,4,6,7-tetrahydro-5H-pyrazolo[4,3-c]pyridin-5-yl)-7-methylimidazo[5,1-f][1,2,4]triazine] came in with an IC50 of 0.465 nM.

Molecule `Cc1nc([C@@H]2CCOC2)c2c(N3CCc4c(O)nc(C5CCCC5)nc4C3)ncnn12` [Example 158, 2-cyclopentyl-7-{7-methyl-5-[(3S)-tetrahydrofuran-3-yl]imidazo[5,1-f][1,2,4]triazin-4-yl}-5,6,7,8-tetrahydropyrido[3,4-d]pyrimidin-4-ol] came in with a 50% inhibitory concentration (IC50) of 0.227 nM.

`Cc1c2c(nn1C)CCN(c1ncnn3c(C)nc(-c4ccccc4F)c13)C2` [Example 113] had a half-inhibitory concentration (IC50) of 0.638 nM.

For the molecule `Cc1nc([C@@H]2CCOC2)c2c(N3CCc4nc(C5CC5)ccc4C3)ncnn12` [Example 154, 2-cyclopropyl-6-{7-methyl-5-[(3S)-tetrahydrofuran-3-yl]imidazo[5,1-f][1,2,4]triazin-4-yl}-5,6,7,8-tetrahydro-1,6-naphthyridine], the IC50 was determined as 0.144 nM.

On to `COc1cc2c(cc1OC)CN(c1ncnn3c(C)nc([C@H]4CCOC4)c13)CC2` [Example 14, 6,7-dimethoxy-2-{7-methyl-5-[(3R)-tetrahydrofuran-3-yl]imidazo[5,1-f][1,2,4]triazin-4-yl}-1,2,3,4-tetrahydroisoquinoline], for which the midpoint of inhibition, the IC50, lay at 1.62 nM.

`Cc1nc(CC(C)C)c2c(N3CCc4nc(C5CC5)ncc4C3)ncnn12` [Example 55, 2-cyclopropyl-6-(5-isobutyl-7-methylimidazo[5,1-f][1,2,4]triazin-4-yl)-5,6,7,8-tetrahydropyrido[4,3-d]pyrimidine] yielded an IC50 of 2.19 nM.

`Cc1nc(-c2ccccc2F)c2c(N3CCc4c(O)nc(C5CCCC5)nc4C3)ncnn12` [Example 160, 2-cyclopentyl-7-[5-(2-fluorophenyl)-7-methylimidazo[5,1-f][1,2,4]triazin-4-yl]-5,6,7,8-tetrahydropyrido[3,4-d]pyrimidin-4-ol] had a half-inhibitory concentration (IC50) of 3.76 nM.

For the molecule `CCn1c(C)nc2c(c1=O)CN(c1ncnn3c(C)nc([C@@H]4CCOC4)c13)CC2` [Example 129, 3-ethyl-2-methyl-6-{7-methyl-5-[(3S)-tetrahydrofuran-3-yl]imidazo[5,1-f][1,2,4]triazin-4-yl}-5,6,7,8-tetrahydropyrido[4,3-d]pyrimidin-4(3H)-one], half-maximal inhibition (IC50) required 0.0998 nM.

In turn, `CCn1c(C2CC2)nc2c(c1=O)CN(c1ncnn3c(C)nc(-c4ccccc4F)c13)CC2` [Example 149, 2-cyclopropyl-3-ethyl-6-[5-(2-fluorophenyl)-7-methylimidazo[5,1-f][1,2,4]triazin-4-yl]-5,6,7,8-tetrahydropyrido[4,3-d]pyrimidin-4(3H)-one] showed an IC50 of 0.497 nM.

For the origin of these results see patent publication US8933224B2, “Triazine derivatives” (Pfizer Inc., priority 2013, dated 2015).
